Measured values taken from publication PMC3082971 (Biochemistry, 2011).

Target: T1, hVDAC2 (Homo sapiens, UniProt P45880)
T1 sequence (P45880 2-294): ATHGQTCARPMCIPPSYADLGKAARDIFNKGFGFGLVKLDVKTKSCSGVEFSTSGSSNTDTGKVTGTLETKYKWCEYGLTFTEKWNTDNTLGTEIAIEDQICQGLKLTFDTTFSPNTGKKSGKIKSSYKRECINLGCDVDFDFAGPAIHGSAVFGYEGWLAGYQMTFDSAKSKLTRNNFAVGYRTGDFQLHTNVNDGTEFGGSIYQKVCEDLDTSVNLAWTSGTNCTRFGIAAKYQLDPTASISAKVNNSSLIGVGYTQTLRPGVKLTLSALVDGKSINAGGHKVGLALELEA
Test: biochemical

## CCOc1ccccc1-n1c(C(C)N2CCN(C(=O)COc3ccc(Cl)cc3)CC2)nc2ccccc2c1=O (stereo not shown) [erastin]
  EC50: 52.6 ± 28.2 nM
